From the NIST ThermoML archive (doi:10.1021/je200825j)

Details: Liquid mixture 1, Drop weight

CCCCCCCCCC [decane] + O
Details	interfacial tension [mN/m]
297.85 K, 110 kPa	51.96
323.35 K, 180 kPa	47.78
323.35 K, 22250 kPa	48.88
323.35 K, 39800 kPa	49.11
343.45 K, 150 kPa	46.28
343.45 K, 22850 kPa	47.68
343.45 K, 49020 kPa	48.39
374.25 K, 200 kPa	42.87
374.25 K, 23000 kPa	44.13
374.25 K, 47150 kPa	45.21
403.05 K, 400 kPa	39.59
403.05 K, 24500 kPa	40.33
403.05 K, 48000 kPa	40.9
442.85 K, 1150 kPa	32.36
442.85 K, 46400 kPa	36.89
